pIC50: −log10 of the molar value.
Assays:
[1] = target: T1, Bromodomain-containing protein 4 (Homo sapiens, UniProt O60885); test: Inhibition of BRD4 BD2 (unknown origin) using SGRGK(Ac)GGK(Ac)GLGK(Ac) GGAK(Ac)RHRK-biotinylated peptide as substrate incubated for 60 mins by alpha screen assay
[2] = target: T1, Bromodomain-containing protein 4; test: Inhibition of N-terminal GST-tagged/C-terminal 6His-tagged BRD4 BD1 (47 to 170 residues) (unknown origin) expressed in Escherichia coli BL21 (DE3) using SGRGK(Ac)GGK(Ac)GLGK(Ac) GGAK(Ac)RHRK-biotinylated peptide as substrate incubated for 60 mins by alpha screen assay

| Compound | pIC50 [1] | pIC50 [2] |
| --- | --- | --- |
| CCCS(=O)(=O)Nc1ccc(NC(C)C)nc1Nc1ccc2[nH]nnc2c1 | 5.52 | 5.49 |
| CC(C)Nc1ccc([N+](=O)[O-])c(Nc2ccc3c(c2)nnn3S(=O)(=O)c2ccccc2)n1 | 5.35 | 5.51 |
| CN(C)S(=O)(=O)Nc1ccc(NCCCN2CCOCC2)nc1Nc1ccc2[nH]nnc2c1 | 4.82 | 5.27 |
| CC(C)Nc1ccc(NS(=O)(=O)C2CC2)c(Nc2ccc3[nH]nnc3c2)n1 | 5.74 | 5.74 |
| CC(C)Nc1ccc(NC(=O)Nc2ccccc2)c(Nc2ccc3[nH]nnc3c2)n1 | 4.99 | 5.16 |
| CC(C)Nc1ccc(NS(=O)(=O)C2CCCCC2)c(Nc2ccc3[nH]nnc3c2)n1 | 6.05 | 6.18 |
| CC(C)Nc1ccc(NS(=O)(=O)c2ccccc2F)c(Nc2ccc3[nH]nnc3c2)n1 | 5.78 | 5.85 |
| CC(C)Nc1ccc(NS(=O)(=O)c2cccs2)c(Nc2ccc3[nH]nnc3c2)n1 | 6.11 | 6.11 |
| CN(C)S(=O)(=O)Nc1ccc(NCC(O)c2ccccc2)nc1Nc1ccc2[nH]nnc2c1 (stereo not drawn) | 5.29 | 5.25 |
| CC(C)Nc1ccc(NS(=O)(=O)c2cccnc2)c(Nc2ccc3[nH]nnc3c2)n1 | 6.10 | 6.08 |
| CN(C)S(=O)(=O)Nc1ccc(NCc2ccccc2)nc1Nc1ccc2[nH]nnc2c1 | – | 5.65 |
| CC(C)Nc1ccc([N+](=O)[O-])c(Nc2ccc3c(c2)nnn3C)n1 | 4.99 | 5.37 |
| CN(C)S(=O)(=O)Nc1ccc(NCc2cccc3ccccc23)nc1Nc1ccc2[nH]nnc2c1 | – | 5.10 |
| CN(C)S(=O)(=O)Nc1ccc(NCCc2c[nH]c3ccccc23)nc1Nc1ccc2[nH]nnc2c1 | – | 5.44 |
| CN(C)S(=O)(=O)Nc1ccc(NCC2CCCO2)nc1Nc1ccc2[nH]nnc2c1 (stereo not drawn) | 5.07 | 5.02 |
| CN(C)S(=O)(=O)Nc1ccc(NCCN2CCOCC2)nc1Nc1ccc2[nH]nnc2c1 | 4.94 | 5.10 |

The remaining compounds from weak to strong by pIC50 [2], led by results:

| pIC50 [1] | pIC50 [2] | Compound |
| --- | --- | --- |
| 4.98 | 4.70 | CN(C)S(=O)(=O)Nc1ccc(N2CCS(=O)(=O)CC2)nc1Nc1ccc2[nH]nnc2c1 |
| 4.95 | 5.12 | CN(C)S(=O)(=O)Nc1ccc(NCc2ccc(F)cc2F)nc1Nc1ccc2[nH]nnc2c1 |
| 5.00 | 5.16 | CN(C)S(=O)(=O)Nc1ccc(NC2COC2)nc1Nc1ccc2[nH]nnc2c1 |
| 5.24 | 5.34 | CN(C)S(=O)(=O)Nc1ccc(N2CCOCC2)nc1Nc1ccc2[nH]nnc2c1 |
| 5.36 | 5.35 | CN(C)S(=O)(=O)Nc1ccc(N2C3CCC2COC3)nc1Nc1ccc2[nH]nnc2c1 |
| 4.99 | 5.37 | CC(C)Nc1ccc([N+](=O)[O-])c(Nc2ccc3c(c2)nnn3C(=O)c2ccccc2)n1 |
| 5.98 | 6.11 | CC(C)Nc1ccc(NS(=O)(=O)c2c(F)cccc2F)c(Nc2ccc3[nH]nnc3c2)n1 |

From ChEMBL document CHEMBL5360526, “Discovery of BET specific bromodomain inhibitors with a novel scaffold” (Bioorg Med Chem, 2022)
